We go through one molecule from patent publication US9980889B2, “Compositions comprising P-hydroxybenzylamine” (DSM IP ASSETS B.V., priority 2012, dated 2018).

Molecules are shown by their SMILES. Converted amounts (≈) assume the structure as drawn.

Holding throughout (assay): MIC by agar dilution method according to DIN 58 940
A general note: Agar dilution tests growth on a series of plates holding different concentrations.

Test [1] deals with P. acnes. It counts as cell-based, Propionibacterium acnes. To be noted: Cutibacterium acnes, ATCC11828; P. acnes ATCC 11828; Mueller-Hinton Agar, 36° C., read after 48 h. The procedure:
(§1) The antimicrobial activity was assessed by determination of the Minimum Inhibitory Concentration (MIC) using the agar dilution method according to DIN 58 940 at the Labor L+SAG, D−Bad Bocklet-Grossenbrach.
(§2) Culture plates with a diameter of 5.5 cm were prepared with fresh, kept liquid (50° C.) Mueller-Hinton Agar (double concentrated, Merck 1.05437)/aqua purificata comprising p-Hydroxybenzylamine (pHBA) in the concentrations indicated in Table 1 according to standard methods. After solidifying and drying (about 1 h at 36° C.), the culture plates were inoculated with 1 μl of a suspension of the respective microorganism with the colony forming unit as outlined in table 1. The inoculated plates were then incubated at 36° C. The MIC's (i.e. the concentrations where still no growth could be observed) were determined after 18 h for E. coli, P. aeruginosa and S. aureus; after 48 h for P. acnes and after 78 h for A. brasiliensis and C. albicans. Per sample two culture plates were prepared. As control incubated and non-incubated cultures were used.
The suspensions of the microorganism's No. 1-4 were prepared by homogeneous suspension of 3-5 colonies of the same morphology in physiological NaCl-solution. The suspensions were adjusted such, that the haze corresponded to the Mac Farland standard 1.0 (about 3.0*10^8 KBE*/ml). […] The colony count was determined using a spiral plater system (see table 2).

Test [2] relates to S. aureus. It counts as cell-based. The conditions noted are these: Staphylococcus aureus, ATCC6538; S. aureus ATCC 6538; Mueller-Hinton Agar, 36° C., read after 18 h. The procedure:
as §1, §2
(§3) The suspensions of the microorganism's No. 1-4 were prepared by homogeneous suspension of 3-5 colonies of the same morphology in physiological NaCl-solution. The suspensions were adjusted such, that the haze corresponded to the Mac Farland standard 1.0 (about 3.0*10^8 KBE*/ml). For the preparation of the suspensions of the microorganisms 5 and 6, the microorganisms have been taken with a sterile swab and diluted in an amount of physiological NaCl solution such, that the haze corresponded to the Mac Farland standard 1.0. Afterwards the suspensions of the microorganisms 1 and 3-6 have been further diluted with physiological NaCl-solution in a ratio of 1:10. The colony count was determined using a spiral plater system (see table 2).

Test [3] deals with P. aeruginosa. Format: cell-based. To be noted: Pseudomonas aeruginosa, ATCC9027; P. aeruginosa ATCC 9027; Mueller-Hinton Agar, 36° C., read after 18 h. The procedure: as §1, §2, §3
Test [4] relates to E. coli. It counts as cell-based. The conditions noted are these: Escherichia coli, ATCC8739; E. coli ATCC 8739; Mueller-Hinton Agar, 36° C., read after 18 h. The procedure: as §1, §2, §3
Test [5] relates to A. brasiliensis. It counts as cell-based. The conditions noted are these: Aspergillus brasiliensis, ATCC16404; A. brasiliensis ATCC 16404; Mueller-Hinton Agar, 36° C., read after 78 h. The procedure: as §1, §2, §3
The subject of test [6] is C. albicans. It counts as cell-based. The conditions noted are these: Candida albicans, ATCC10231; C. albicans ATCC 10231; Mueller-Hinton Agar, 36° C., read after 78 h. The procedure:
as §1, §2, §3

Regarding `NCc1ccc(O)cc1` [pHBA, p-Hydroxybenzylamine], the MIC (commonly the lowest concentration found to suppress growth) in test [1] amounted to 7900 µg/mL (≈ 64.1 mM); in test [2], 5270 µg/mL (≈ 42.8 mM); in test [3], 5270 µg/mL (≈ 42.8 mM); in test [4], 5270 µg/mL (≈ 42.8 mM); in test [5] it was 5270 µg/mL (≈ 42.8 mM); in test [6], 5270 µg/mL (≈ 42.8 mM).
